The results in this text go back to ChEMBL document CHEMBL1155119, “Identification of novel inhibitors of methionyl-tRNA synthetase (MetRS) by virtual screening” (Bioorg Med Chem Lett, 2008).

The subject of assay [1] is Staphylococcus aureus. The experiment in a line: Inhibition of Staphylococcus aureus MetRS assessed as decrease in […] incorporation at 100 uM by SPA.
Assay [2] is described as follows: Inhibition of Staphylococcus aureus MetRS assessed as decrease in […] incorporation by SPA.
The test system of assay [3] is Staphylococcus aureus. Put plainly: Inhibition of Staphylococcus aureus MetRS assessed as decrease in […] incorporation at 40 uM by SPA.

SMILES strings stand for the structures.

The inhibition is how much of the control response was suppressed. The term IC50 denotes the concentration needed to halve the response being measured. As to `O=C(Nc1cccc(O)c1)c1cnn2c1NC(c1cccs1)CC2C(F)(F)F` (configuration not stated), in the assay with Staphylococcus aureus [1], the inhibition is 83%. Moreover, in assay [2], the IC50 was found to be 5.7 µM.

Regarding `O=C(Nc1cccc(O)c1)c1cnn2c1NC(c1ccc(Br)cc1)CC2C(F)(F)F` (configuration not stated), the inhibition with Staphylococcus aureus [1] was 55%. For the same compound, in assay [2], the IC50 came to 8.3 µM.

For `O=C(CCCOc1ccc(Cl)cc1Cl)N/N=C/c1ccccc1O`, the inhibition in the assay with Staphylococcus aureus [1] is 86%. The IC50 in assay [2] came to 4.8 µM.

On to `Cc1ccc(S(=O)(=O)N2CCC(C(=O)N/N=C/c3ccccc3O)CC2)cc1`, for which the inhibition in the assay with Staphylococcus aureus [1] amounted to 61%. In addition, the IC50 in assay [2] was found to be 40.8 µM.

For the compound `COc1ccc(O)c(/C=N/NC(=O)CCC(=O)Nc2ccc(Br)cc2)c1`, in the assay on Staphylococcus aureus [1], the inhibition was determined as 72%. Moreover, the IC50 in assay [2] worked out at 41.7 µM.

Turning to `O=c1cc(NCCCNC2CCOc3c(Br)cc(Br)cc32)[nH]c2ccccc12` (configuration not stated), in assay [2], the half-inhibitory concentration (IC50) amounted to 0.008 µM.

Take `O=C(Nc1ccccc1O)c1cc(C(=O)Nc2ccccc2O)cc(N2C(=O)c3ccccc3C2=O)c1`: in the assay on Staphylococcus aureus [1], the inhibition was 92%. Further, in assay [2], the IC50 amounted to 11.5 µM.

With `O=C(CSc1nc2ccccc2n1Cc1ccccc1)N/N=C/c1ccccc1O`, the inhibition in the assay on Staphylococcus aureus [1] amounted to 76%; in the assay with Staphylococcus aureus [3], 52%.

On to `Cc1cccc(C(=O)Nc2nnc(CC(=O)N/N=C/c3ccc(O)cc3O)s2)c1`, for which the inhibition in the assay on Staphylococcus aureus [1] was 84%. Further, the IC50 in assay [2] worked out at 46.3 µM.

Regarding `NC(=O)[C@H](Cc1ccc(O)cc1)NC(=O)[C@@H]1CCN1/C=C1\N=C(c2ccc(Cl)cc2Cl)OC1=O`, the IC50 in assay [2] is 0.07 µM.

Take `O=C(Nc1cc(Cl)ccc1O)c1cnn2c1NC(c1ccc(Br)cc1)CC2C(F)(F)F` (configuration not stated): in the assay on Staphylococcus aureus [1], the inhibition turned out to be 47%.

As for `COc1ccc(O)c(/C=N/NC(=O)CNC(=O)c2ccc(Cl)cc2)c1`, the inhibition with Staphylococcus aureus [1] was 91%; in the assay on Staphylococcus aureus [3], 35%.

Turning to `O=C(Nc1ccccc1C(=O)N/N=C/c1ccccc1O)c1ccc(Cl)cc1`, the inhibition in the assay with Staphylococcus aureus [1] came to 77%. Also, the IC50 in assay [2] worked out at 23.6 µM.

For `Clc1ccc(-c2ccc(-c3cc(-c4nnn[nH]4)nn3-c3cccnc3)cc2)c(Cl)c1`, the IC50 in assay [2] came out at 0.13 µM.

Turning to `O=C(NC(C(=O)N/N=C/c1ccccc1O)c1n[nH]c(=O)c2ccccc12)c1ccccc1` (configuration not stated), the inhibition with Staphylococcus aureus [1] was 52%. For the same compound, in assay [2], the IC50 came to 35.6 µM.

`O=C(CNC(=O)c1ccc(Cl)cc1)N/N=C/c1c(O)ccc2ccccc12`: in the assay on Staphylococcus aureus [1], the inhibition stood at 80%. The IC50 in assay [2] came out at 26.6 µM.

Take `O=C(Nc1cccc(Cl)c1)Nc1sc2c(c1-c1nc3ccccc3s1)CCCC2`: the inhibition in the assay with Staphylococcus aureus [1] amounted to 80%. The IC50 in assay [2] worked out at 6.3 µM.

Consider `Nc1nn(CCO)c2cc(-c3ccc(Cl)cc3Cl)ccc12`, for which the IC50 in assay [2] is 0.57 µM.

For the compound `O=C(Cn1nnc(-c2ccccc2)n1)N/N=C/c1ccc(O)cc1O`, the inhibition in the assay on Staphylococcus aureus [1] was 45%.

With `O=C(NCc1nc2ccccc2[nH]1)[C@@H]1CC(O)CN1Cc1ccc(Cl)cc1Cl` (some centres not stated), in assay [2], the IC50 stood at 0.21 µM.

`Cc1cc(Cl)ccc1NC(=O)CCC(=O)N/N=C/c1ccccc1O`: the inhibition with Staphylococcus aureus [1] is 91%. Also, the IC50 in assay [2] came to 94.9 µM.

Turning to `O=C(N/N=C/c1ccc(O)cc1O)c1cc(-c2ccccc2)nc2ccccc12`, in the assay with Staphylococcus aureus [1], the inhibition came out at 87%. For the same compound, in assay [2], the IC50 was found to be 46.5 µM.

Consider `O=C(CSc1ccc2ccccc2n1)N/N=C/c1ccccc1O`, for which, in the assay with Staphylococcus aureus [1], the inhibition came out at 47%.

As to `S=C(Nc1ccccc1)Nc1nc2ccccc2n1CCOc1ccc(Cl)cc1`, the inhibition in the assay with Staphylococcus aureus [1] came out at 67%. For the same compound, the IC50 in assay [2] turned out to be 86.8 µM.

As for `O=C(/N=N/c1nc(Nc2ccccc2)nc(N2CCOCC2)n1)Nc1ccc(Cl)cc1`, the inhibition in the assay on Staphylococcus aureus [1] was 81%; in the assay on Staphylococcus aureus [3], 34%.

With `O=C(O)c1ccc(OCc2ccc(Cl)cc2Cl)c(OCc2nc3ccccc3[nH]2)c1`, the IC50 in assay [2] amounted to 0.02 µM.

As to `S=C(Nc1ccccc1)Nc1nc2ccccc2n1CCOc1ccccc1Cl`, the inhibition in the assay on Staphylococcus aureus [1] was 66%. Besides, the IC50 in assay [2] amounted to 25.3 µM.

As to `O=C(CSc1nc2ccccc2n1Cc1ccc(Cl)cc1)N/N=C/c1ccccc1O`, the inhibition in the assay on Staphylococcus aureus [1] was 82%. The IC50 in assay [2] turned out to be 56 µM.
